Experimental data as given in ChEMBL document CHEMBL1201862, “PubChem BioAssay data set” (2004).
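A five-concentration, 48-hour dose response in 96-well plates underlies each endpoint, interpolated linearly between surrounding concentrations. GI50 is the concentration that inhibits growth by half.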 The source made the active and inactive calls. Cut-off read from the data, not from the text of the source: active = GI50 up to about 1.1 µM and inactive = higher.

Assays:
Test in all cases: growth of human tumour cells (NCI), 48 h
HOP-92 = tested on: HOP-92
SK-MEL-2 = tested on: SK-MEL-2
SK-OV-3 = tested on: SK-OV-3
HCT-116 = tested on: HCT-116
NCI-H23 = tested on: NCI-H23
A498 = tested on: A498
HT-29 = tested on: HT-29
K562 = tested on: K562
SNB-75 = tested on: SNB-75
RXF 393 = tested on: RXF 393
COLO 205 = tested on: COLO 205
HL-60 = tested on: HL-60
M19-MEL = tested on: M19-MEL
MOLT-4 = tested on: MOLT-4
SR = tested on: SR
HCC 2998 = tested on: HCC 2998
DU-145 = tested on: DU-145
PC-3 = tested on: PC-3
MCF7 = tested on: MCF7
KM-20L2 = tested on: KM-20L2

SMILES	GI50 (HOP-92)	GI50 (SK-MEL-2)	GI50 (SK-OV-3)	GI50 (HCT-116)	GI50 (NCI-H23)	GI50 (A498)	GI50 (HT-29)	GI50 (K562)	GI50 (SNB-75)	GI50 (RXF 393)	GI50 (COLO 205)	GI50 (HL-60)	GI50 (M19-MEL)	GI50 (MOLT-4)	GI50 (SR)	GI50 (HCC 2998)	GI50 (DU-145)	GI50 (PC-3)	GI50 (MCF7)	GI50 (KM-20L2)
CCN(CC)c1ccc(C(=O)c2ccccc2C(=O)O)c(O)c1	> 100 µM (inactive)	> 100 µM (inactive)	> 100 µM (inactive)	> 100 µM (inactive)	> 100 µM (inactive)	> 100 µM (inactive)	> 100 µM (inactive)	> 100 µM (inactive)	> 100 µM (inactive)	> 100 µM (inactive)	> 100 µM (inactive)	> 100 µM (inactive)	> 100 µM (inactive)	> 100 µM (inactive)						
O=[N+]([O-])/C(Cl)=C(/C(Cl)=C(Cl)Cl)N1CCOCC1	2.51 µM (inactive)	2.12 µM (inactive)	13.8 µM (inactive)	2.44 µM (inactive)	2.24 µM (inactive)	3.04 µM (inactive)	3.4 µM (inactive)	3.18 µM (inactive)	4.03 µM (inactive)	2.61 µM (inactive)	2.54 µM (inactive)	2.28 µM (inactive)		2.58 µM (inactive)	2.21 µM (inactive)	3.09 µM (inactive)	13.7 µM (inactive)	6.01 µM (inactive)	1.12 µM (active)	
CC1=NN(c2ccccc2Cl)C2(C1)C(Cl)C(=O)N2c1nc2ccccc2s1 (configuration not stated)	88.7 µM (inactive)	48.9 µM (inactive)	24.7 µM (inactive)	44.9 µM (inactive)	48.4 µM (inactive)	> 100 µM (inactive)	51.5 µM (inactive)	37.5 µM (inactive)	20.8 µM (inactive)	39.1 µM (inactive)	61.1 µM (inactive)	25.5 µM (inactive)		30 µM (inactive)	21.1 µM (inactive)	> 100 µM (inactive)	47.2 µM (inactive)	> 100 µM (inactive)	44.8 µM (inactive)	
Brc1ccccc1/C=C\C1(c2ccccc2)OCCO1	23.3 µM (inactive)	23 µM (inactive)	13.6 µM (inactive)	4.98 µM (inactive)	7.29 µM (inactive)	12.9 µM (inactive)	7.01 µM (inactive)	1.01 µM (active)	15 µM (inactive)	13.9 µM (inactive)	19.6 µM (inactive)	24.7 µM (inactive)		0.238 µM (active)	0.692 µM (active)	15.7 µM (inactive)	13.7 µM (inactive)	17.9 µM (inactive)	4 µM (inactive)	
CCCNCCCC(NC(C)=O)C(=O)NCc1ccccc1 (configuration not stated)	> 100 µM (inactive)	> 100 µM (inactive)	> 100 µM (inactive)	> 100 µM (inactive)	> 100 µM (inactive)	> 100 µM (inactive)	> 100 µM (inactive)	> 100 µM (inactive)	51.8 µM (inactive)	> 100 µM (inactive)	> 100 µM (inactive)		> 100 µM (inactive)	> 100 µM (inactive)		> 100 µM (inactive)				> 100 µM (inactive)
COC(=O)c1cc(C)ccc1CC(Cc1ccc(C)cc1)C(=O)OC (configuration not stated)	8.95 µM (inactive)	25.1 µM (inactive)	26.6 µM (inactive)	10.5 µM (inactive)	9.4 µM (inactive)	72.6 µM (inactive)	5.58 µM (inactive)	3.18 µM (inactive)	6.78 µM (inactive)	2.87 µM (inactive)	14.8 µM (inactive)	4.37 µM (inactive)		5.01 µM (inactive)	7.71 µM (inactive)	25.8 µM (inactive)	> 33 µM (inactive)	37.8 µM (inactive)	26.3 µM (inactive)	
CCOP(=O)(OCC)OC1C=CC2CCC1C2 (configuration not stated)		> 100 µM (inactive)	> 100 µM (inactive)	> 100 µM (inactive)	> 100 µM (inactive)	> 100 µM (inactive)	> 100 µM (inactive)	> 100 µM (inactive)	> 100 µM (inactive)	> 100 µM (inactive)	> 100 µM (inactive)	> 100 µM (inactive)		> 100 µM (inactive)	26.6 µM (inactive)	> 100 µM (inactive)				> 100 µM (inactive)
O=c1[nH][nH]c(=O)c2c1ccc1oc3ccccc3c12	> 100 µM (inactive)	> 100 µM (inactive)	> 100 µM (inactive)	> 100 µM (inactive)	> 100 µM (inactive)	> 100 µM (inactive)	> 100 µM (inactive)	> 100 µM (inactive)	> 100 µM (inactive)	> 100 µM (inactive)	> 100 µM (inactive)	> 100 µM (inactive)		> 100 µM (inactive)	> 100 µM (inactive)	99.3 µM (inactive)	> 100 µM (inactive)	> 100 µM (inactive)	> 100 µM (inactive)	
C#Cc1cc(CN(CC(=O)OC(C)(C)C)CC(=O)OC(C)(C)C)nc(CN(CC(=O)OC(C)(C)C)CC(=O)OC(C)(C)C)c1		2.28 µM (inactive)	6.55 µM (inactive)		4.74 µM (inactive)	17.8 µM (inactive)	4.4 µM (inactive)	4.6 µM (inactive)	11.6 µM (inactive)	2.84 µM (inactive)	7.36 µM (inactive)	2.98 µM (inactive)	6.4 µM (inactive)	2.62 µM (inactive)		4.31 µM (inactive)				5.43 µM (inactive)
COC(=O)/C(C#N)=C(\Nc1ccccc1)N1CCCCC1	> 100 µM (inactive)	> 100 µM (inactive)	> 100 µM (inactive)	> 100 µM (inactive)	> 100 µM (inactive)	> 100 µM (inactive)	> 100 µM (inactive)	> 100 µM (inactive)	> 100 µM (inactive)	> 100 µM (inactive)	> 100 µM (inactive)	> 100 µM (inactive)		> 100 µM (inactive)	> 100 µM (inactive)	> 100 µM (inactive)	> 100 µM (inactive)	> 100 µM (inactive)	> 100 µM (inactive)	
Brc1c(C#CCC(c2ccccc2)(c2ccccc2)c2ccccc2)ccc(C#CCC(c2ccccc2)(c2ccccc2)c2ccccc2)c1Br	> 100 µM (inactive)	> 100 µM (inactive)	> 100 µM (inactive)	> 100 µM (inactive)	> 100 µM (inactive)	> 100 µM (inactive)	> 100 µM (inactive)	> 100 µM (inactive)	> 100 µM (inactive)	> 100 µM (inactive)	> 100 µM (inactive)	> 100 µM (inactive)		> 100 µM (inactive)	> 100 µM (inactive)	> 100 µM (inactive)	> 100 µM (inactive)	> 100 µM (inactive)	> 100 µM (inactive)	
CC1=C2NCN(C)N=C2C(C#N)(C#N)C1(C#N)C#N	15.4 µM (inactive)	> 61.7 µM (inactive)	> 100 µM (inactive)	23.1 µM (inactive)	14.1 µM (inactive)	41.3 µM (inactive)	21.4 µM (inactive)	3.78 µM (inactive)	> 51.1 µM (inactive)	19.1 µM (inactive)	5 µM (inactive)	1.93 µM (inactive)		2.56 µM (inactive)	6.49 µM (inactive)	21 µM (inactive)	42.3 µM (inactive)	26.9 µM (inactive)	19.8 µM (inactive)	
CC(C)CCOC(=O)NC(Nc1ccc(F)cc1)(C(F)(F)F)C(F)(F)F	44.2 µM (inactive)	53.1 µM (inactive)	63 µM (inactive)	65.9 µM (inactive)	33.4 µM (inactive)	42.9 µM (inactive)	39.8 µM (inactive)	0.695 µM (active)	> 100 µM (inactive)	> 100 µM (inactive)	18.3 µM (inactive)	12.9 µM (inactive)		19.1 µM (inactive)	0.679 µM (active)	21.7 µM (inactive)	7.36 µM (inactive)	28.1 µM (inactive)	23.2 µM (inactive)	
Cc1cc2c(c3c1c1ccccc1n3C)C(=O)c1ccccc1C2=O	16.9 µM (inactive)	> 100 µM (inactive)		> 100 µM (inactive)	48.5 µM (inactive)		> 100 µM (inactive)	48 µM (inactive)	> 100 µM (inactive)	> 100 µM (inactive)	> 100 µM (inactive)	39.3 µM (inactive)	> 100 µM (inactive)	53.6 µM (inactive)		> 100 µM (inactive)				> 100 µM (inactive)
Cc1ccccc1CN1CC=c2ccccc2=N1	> 100 µM (inactive)	> 100 µM (inactive)	> 100 µM (inactive)	> 10 µM (inactive)	> 100 µM (inactive)	> 100 µM (inactive)	> 100 µM (inactive)	> 100 µM (inactive)	50.9 µM (inactive)		> 100 µM (inactive)		> 100 µM (inactive)			> 100 µM (inactive)				> 100 µM (inactive)
COc1cc(CCc2ccc(OC(C)=O)cc2)cc(OC)c1OC	49 µM (inactive)			> 100 µM (inactive)		> 100 µM (inactive)	> 100 µM (inactive)	63.8 µM (inactive)	80.5 µM (inactive)	> 100 µM (inactive)	> 100 µM (inactive)	> 100 µM (inactive)	> 100 µM (inactive)	> 100 µM (inactive)						> 100 µM (inactive)
c1ccc2c(c1)Sc1ccccc1N2CC1CN2CCC1CC2 (configuration not stated) [MEQUITAZINE]	11 µM (inactive)	3.32 µM (inactive)	12.5 µM (inactive)	3.52 µM (inactive)	13 µM (inactive)	11.7 µM (inactive)	3.01 µM (inactive)	2.11 µM (inactive)	1.75 µM (inactive)	2.31 µM (inactive)	1.69 µM (inactive)	3.57 µM (inactive)		3.42 µM (inactive)	2.58 µM (inactive)	1.29 µM (inactive)	6.73 µM (inactive)	5.35 µM (inactive)	3.4 µM (inactive)	
